Assays:
Format in all cases: functional
Avena sterilis [1] = assay: Herbicidal activity against Avena sterilis accession P19S assessed as induction of weed mortality
Avena sterilis [2] = assay: Herbicidal activity against Avena sterilis accession P01 assessed as weed survival at 8 times field recommended herbicide dose
Avena sterilis [3] = assay: Herbicidal activity against Avena sterilis accession P20 assessed as weed survival at 1 times field recommended herbicide dose
Avena sterilis [4] = assay: Herbicidal activity against Avena sterilis accession P16 assessed as weed survival at 4 times field recommended herbicide dose
Avena sterilis [5] = assay: Herbicidal activity against Avena sterilis accession P08 assessed as induction of weed mortality
Avena sterilis [6] = assay: Herbicidal activity against Avena sterilis accession P14 assessed as weed survival at 16 times field recommended herbicide dose
Avena sterilis [7] = assay: Herbicidal activity against Avena sterilis accession P03 assessed as weed survival at 32 times field recommended herbicide dose
Avena sterilis [8] = assay: Herbicidal activity against Avena sterilis accession P08 assessed as weed survival at 1 times field recommended herbicide dose
Avena sterilis [9] = assay: Herbicidal activity against Avena sterilis accession P19S assessed as weed survival at 1/8 times field recommended herbicide dose
Avena sterilis [10] = assay: Herbicidal activity against Avena sterilis accession P07 assessed as weed survival at 16 times field recommended herbicide dose
Avena sterilis [11] = assay: Herbicidal activity against Avena sterilis accession P20 assessed as weed survival at 16 times field recommended herbicide dose
Avena sterilis [12] = assay: Herbicidal activity against Avena sterilis accession P14 assessed as weed survival at 32 times field recommended herbicide dose
Avena sterilis [13] = assay: Herbicidal activity against Avena sterilis accession P05 assessed as weed survival at 32 times field recommended herbicide dose
Avena sterilis [14] = assay: Herbicidal activity against Avena sterilis accession P12 assessed as weed survival at 32 times field recommended herbicide dose
Avena sterilis [15] = assay: Herbicidal activity against Avena sterilis accession P17 assessed as weed survival at 32 times field recommended herbicide dose
Avena sterilis [16] = assay: Herbicidal activity against Avena sterilis accession P12 assessed as weed survival at 4 times field recommended herbicide dose
Avena sterilis [17] = assay: Herbicidal activity against Avena sterilis accession P04 assessed as weed survival at 4 times field recommended herbicide dose
Avena sterilis [18] = assay: Herbicidal activity against Avena sterilis accession P03 assessed as weed survival at 16 times field recommended herbicide dose
Avena sterilis [19] = assay: Herbicidal activity against Avena sterilis accession P15 assessed as weed survival at 8 times field recommended herbicide dose
Avena sterilis [20] = assay: Herbicidal activity against Avena sterilis accession P08 assessed as weed survival at 32 times field recommended herbicide dose
Avena sterilis [21] = assay: Herbicidal activity against Avena sterilis accession P09 assessed as weed survival at 4 times field recommended herbicide dose
Avena sterilis [22] = assay: Herbicidal activity against Avena sterilis accession P08 assessed as weed survival at 8 times field recommended herbicide dose
Avena sterilis [23] = assay: Herbicidal activity against Avena sterilis accession P03 assessed as weed survival at 8 times field recommended herbicide dose
Avena sterilis [24] = assay: Herbicidal activity against Avena sterilis accession P03 assessed as weed survival at 4 times field recommended herbicide dose
Avena sterilis [25] = assay: Herbicidal activity against Avena sterilis accession P14 assessed as induction of weed mortality
Avena sterilis [26] = assay: Herbicidal activity against Avena sterilis accession P17 assessed as weed survival at 8 times field recommended herbicide dose
Avena sterilis [27] = assay: Herbicidal activity against Avena sterilis accession P01 assessed as weed survival at 32 times field recommended herbicide dose
Avena sterilis [28] = assay: Herbicidal activity against Avena sterilis accession P02 assessed as weed survival at 4 times field recommended herbicide dose
Avena sterilis [29] = assay: Herbicidal activity against Avena sterilis accession P22 assessed as weed survival at 1 times field recommended herbicide dose
Avena sterilis [30] = assay: Herbicidal activity against Avena sterilis accession P10S assessed as weed survival at 1/16 times field recommended herbicide dose
Avena sterilis [31] = assay: Herbicidal activity against Avena sterilis accession P18 assessed as weed survival at 32 times field recommended herbicide dose
Avena sterilis [32] = assay: Herbicidal activity against Avena sterilis accession P02 assessed as weed survival at 1 times field recommended herbicide dose
Avena sterilis [33] = assay: Herbicidal activity against Avena sterilis accession P03 assessed as induction of weed mortality
Avena sterilis [34] = assay: Herbicidal activity against Avena sterilis accession P17 assessed as weed survival at 4 times field recommended herbicide dose
Avena sterilis [35] = assay: Herbicidal activity against Avena sterilis accession P10S assessed as weed survival at 1/4 times field recommended herbicide dose
Avena sterilis [36] = assay: Herbicidal activity against Avena sterilis accession P02 assessed as weed survival at 8 times field recommended herbicide dose
Avena sterilis [37] = assay: Herbicidal activity against Avena sterilis accession P12 assessed as weed survival at 8 times field recommended herbicide dose
Avena sterilis [38] = assay: Herbicidal activity against Avena sterilis accession P15 assessed as weed survival at 4 times field recommended herbicide dose
Avena sterilis [39] = assay: Herbicidal activity against Avena sterilis accession P05 assessed as weed survival at 1 times field recommended herbicide dose
Avena sterilis [40] = assay: Herbicidal activity against Avena sterilis accession P13S assessed as induction of weed mortality
Avena sterilis [41] = assay: Herbicidal activity against Avena sterilis accession P20 assessed as induction of weed mortality
Avena sterilis [42] = assay: Herbicidal activity against Avena sterilis accession P15 assessed as induction of weed mortality
Avena sterilis [43] = assay: Herbicidal activity against Avena sterilis accession P13S assessed as weed survival at 1/16 times field recommended herbicide dose
Avena sterilis [44] = assay: Herbicidal activity against Avena sterilis accession P20 assessed as weed survival at 4 times field recommended herbicide dose
Avena sterilis [45] = assay: Herbicidal activity against Avena sterilis accession P09 assessed as weed survival at 1 times field recommended herbicide dose
Avena sterilis [46] = assay: Herbicidal activity against Avena sterilis accession P05 assessed as weed survival at 16 times field recommended herbicide dose
Avena sterilis [47] = assay: Herbicidal activity against Avena sterilis accession P01 assessed as weed survival at 16 times field recommended herbicide dose
Avena sterilis [48] = assay: Herbicidal activity against Avena sterilis accession P04 assessed as weed survival at 16 times field recommended herbicide dose
Avena sterilis [49] = assay: Herbicidal activity against Avena sterilis accession P04 assessed as induction of weed mortality
Avena sterilis [50] = assay: Herbicidal activity against Avena sterilis accession P11 assessed as weed survival at 1 times field recommended herbicide dose
Avena sterilis [51] = assay: Herbicidal activity against Avena sterilis accession P17 assessed as induction of weed mortality
Avena sterilis [52] = assay: Herbicidal activity against Avena sterilis accession P21S assessed as induction of weed mortality
Avena sterilis [53] = assay: Herbicidal activity against Avena sterilis accession P09 assessed as weed survival at 32 times field recommended herbicide dose
Avena sterilis [54] = assay: Herbicidal activity against Avena sterilis accession P10S assessed as weed survival at 1 times field recommended herbicide dose
Avena sterilis [55] = assay: Herbicidal activity against Avena sterilis accession P13S assessed as weed survival at 1/8 times field recommended herbicide dose
Avena sterilis [56] = assay: Herbicidal activity against Avena sterilis accession P13S assessed as weed survival at 1/4 times field recommended herbicide dose
Avena sterilis [57] = assay: Herbicidal activity against Avena sterilis accession P22 assessed as induction of weed mortality
Avena sterilis [58] = assay: Herbicidal activity against Avena sterilis accession P11 assessed as weed survival at 32 times field recommended herbicide dose

Structure (SMILES): CCO/N=C(\CC)C1=C(O)CC(c2c(C)cc(C)cc2C)CC1=O (stereo not drawn) [TRALKOXYDIM]
- GR50 (Avena sterilis [1]): 11 gAi/ha
- Survival (Avena sterilis [2]): 20%
- Survival (Avena sterilis [3]): 97%
- Survival (Avena sterilis [4]): 30%
- GR50 (Avena sterilis [5]): 781 gAi/ha
- Survival (Avena sterilis [6]): 0%
- Survival (Avena sterilis [7]): 17%
- Survival (Avena sterilis [8]): 63%
- Survival (Avena sterilis [9]): 93%
- Survival (Avena sterilis [10]): 0%
- Survival (Avena sterilis [11]): 17%
- Survival (Avena sterilis [12]): 0%
- Survival (Avena sterilis [13]): 0%
- Survival (Avena sterilis [14]): 0%
- Survival (Avena sterilis [15]): 0%
- Survival (Avena sterilis [16]): 0%
- Survival (Avena sterilis [17]): 77%
- Survival (Avena sterilis [18]): 20%
- Survival (Avena sterilis [19]): 20%
- Survival (Avena sterilis [20]): 0%
- Survival (Avena sterilis [21]): 20%
- Survival (Avena sterilis [22]): 17%
- Survival (Avena sterilis [23]): 20%
- Survival (Avena sterilis [24]): 60%
- GR50 (Avena sterilis [25]): <400 gAi/ha
- Survival (Avena sterilis [26]): 7%
- Survival (Avena sterilis [27]): 0%
- Survival (Avena sterilis [28]): 40%
- Survival (Avena sterilis [29]): 57%
- Survival (Avena sterilis [30]): 40%
- Survival (Avena sterilis [31]): 0%
- Survival (Avena sterilis [32]): 77%
- GR50 (Avena sterilis [33]): 1561 gAi/ha
- Survival (Avena sterilis [34]): 20%
- Survival (Avena sterilis [35]): 20%
- Survival (Avena sterilis [36]): 20%
- Survival (Avena sterilis [37]): 0%
- Survival (Avena sterilis [38]): 20%
- Survival (Avena sterilis [39]): 40%
- GR50 (Avena sterilis [40]): 34 gAi/ha
- GR50 (Avena sterilis [41]): 2916 gAi/ha
- GR50 (Avena sterilis [42]): 735 gAi/ha
- Survival (Avena sterilis [43]): 67%
- Survival (Avena sterilis [44]): 80%
- Survival (Avena sterilis [45]): 60%
- Survival (Avena sterilis [46]): 0%
- Survival (Avena sterilis [47]): 0%
- Survival (Avena sterilis [48]): 60%
- GR50 (Avena sterilis [49]): 7591 gAi/ha
- Survival (Avena sterilis [50]): 17%
- GR50 (Avena sterilis [51]): 412 gAi/ha
- GR50 (Avena sterilis [52]): 84 gAi/ha
- Survival (Avena sterilis [53]): 0%
- Survival (Avena sterilis [54]): 0%
- Survival (Avena sterilis [55]): 23%
- Survival (Avena sterilis [56]): 20%
- GR50 (Avena sterilis [57]): 434 gAi/ha
- Survival (Avena sterilis [58]): 0%
